Laboratory results: patent US20130065260A1, “Compositions, Methods and Uses for Simultaneous Assay of Thrombin and Plasmin Generation” (The Regents of the University of Colorado, a body corporate, priority 2009, published 2013)

Experiments:
thrombin = assay: Simultaneous thrombin and plasmin generation (STP) assay, thrombin generation; assay type: biochemical, human; details: data not shown; for effect on thrombin generation at heparin 1 U/mL: heparin concentration 1 U/mL
Protocol: Reactant solution is prepared as described previously for the CloFAL assay developed in our laboratory. Briefly, lipidated recombinant human tissue factor (TF) (American Diagnostica Inc, Stamford, Conn.), non-lipidated recombinant human TF (American Diagnostica Inc), and recombinant two-chain tissue plasminogen activator (tPA) (American Diagnostica Inc) are added to a stock solution of Tris-buffered saline (TBS; 66 mM Tris, 130 mM NaCl, pH=7.0) containing 34 mM CaCl2, to a concentration of 10 pM of TF (made from 8.7 pM non-lipidated TF and 1.3 pM lipidated TF) and 900 ng/mL of tPA. Final concentrations are 5 pM TF and 450 ng/mL tPA after addition of reactant solution to plasma samples, as described below. The assay blank consists of TBS alone. The reactant solution is freshly prepared from stored stock solutions of TBS, aliquoted TF, and aliquoted tPA just prior to assay. Final concentrations of TF and tPA ranging from 0-10 pM and 0-900 ng/mL, respectively, were investigated during assay development, with ultimate concentrations of these reagents (as well as ratio of lipidated to non-lipidated TF) selected based upon empiric experiments designed to optimize precision and analytical sensitivity to pathologically and physiologically altered states of coagulation and fibrinolysis, as previously performed with the CloFAL assay
Two fluorometric substrates were used for the detection of the key enzymes, thrombin and plasmin. […]
For each patient sample to be analyzed, 90 μL of reactant solution was added simultaneously to each well in a flat-bottom, black, 96 well Costar assay plate (Fisher Scientific, Santa Clara, Calif.) using a multi-tip automated pipette. […] The plate was then placed into the fluorescent spectrophotometer (Multi-Mode Microplate Reader Synergy 2, Bio-Tek Instruments, Winooski, Vt.) where it was pre-warmed at 37 ° C. for three minutes. […] The plate was then drawn back into the fluorescent spectrophotometer where the sample is initially mixed for five seconds followed by fluorescent intensity measurements taken from each well every 45 seconds for four hours at a fluorescent emission of […] (as determined by the chosen fluorescent substrates). […] The kinetic fluorometric intensity data were exported to Microsoft Excel for additional data analyses in order to generate the aforementioned calculated parameters from the raw data. […]

plasmin = assay: Simultaneous thrombin and plasmin generation (STP) assay, plasmin generation; assay type: biochemical, human; details: data not shown; for effect on plasmin generation at heparin 1 U/mL: heparin concentration 1 U/mL
[1] = normal plasma, corn trypsin inhibitor added to citrate whole blood collection tubes, relative to its absence

With dalteparin the “effect on thrombin generation at heparin 1 U/mL” value (thrombin) was “ablation” and the “effect on plasmin generation at heparin 1 U/mL” value (plasmin) was “ablation”.

porcine unfractionated heparin sodium was tested, and the “effect on thrombin generation at heparin 1 U/mL” value (thrombin) was “ablation” and the “effect on plasmin generation at heparin 1 U/mL” value (plasmin) was “ablation”.

With corn trypsin inhibitor the “STP findings (thrombin generation) with contact pathway inhibition” value (thrombin; [1]) was “did not alter STP findings” and the “STP findings (plasmin generation) with contact pathway inhibition” value (plasmin; [1]) was “did not alter STP findings”.

B1: TF: recombinant human tissue factor, lipidated and non-lipidated, initiates coagulation (protein, UniProt P13726 33-295, looked up)
Tissue factor: SGTTNTVAAYNLTWKSTNFKTILEWEPKPVNQVYTVQISTKSGDWKSKCFYTTDTECDLTDEIVKDVKQTYLARVFSYPAGNVESTGSAGEPLYENSPEFTPYLETNLGQPTIQSFEQVGTKVNVTVEDERTLVRRNNTFLSLRDVFGKDLIYTLYYWKSSSSGKKTAKTNTNEFLIDVDKGENYCFSVQAVIPSRTVNRKSTDSPVECMGQEKGEFREIFYIIGAVVFVVIILVIILAISLHKCRKAGVGQSWKENSPLNVS
modifications: lipidated and non-lipidated
notes: recombinant human tissue factor, lipidated and non-lipidated, initiates coagulation
B1 was tested, and the “thrombin generation capacity, response to exogenous TF” value (thrombin; in vitro) was “concentration-responsiveness”.
